Data taken from publication PMC11870743, “Endothelial OX40 activation facilitates tumor cell escape from T cell surveillance through S1P/YAP-mediated angiogenesis” (The Journal of Clinical Investigation, 2025).

Target: T1, YAP (Yes 1–associated protein), purified (Homo sapiens, UniProt P46937)
T1 construct: gene YAP1; purified YAP protein
Assay: microscale thermophoresis
Format: binding
Details: read-out: dissociation constant

T1 sequence (P46937 whole entry): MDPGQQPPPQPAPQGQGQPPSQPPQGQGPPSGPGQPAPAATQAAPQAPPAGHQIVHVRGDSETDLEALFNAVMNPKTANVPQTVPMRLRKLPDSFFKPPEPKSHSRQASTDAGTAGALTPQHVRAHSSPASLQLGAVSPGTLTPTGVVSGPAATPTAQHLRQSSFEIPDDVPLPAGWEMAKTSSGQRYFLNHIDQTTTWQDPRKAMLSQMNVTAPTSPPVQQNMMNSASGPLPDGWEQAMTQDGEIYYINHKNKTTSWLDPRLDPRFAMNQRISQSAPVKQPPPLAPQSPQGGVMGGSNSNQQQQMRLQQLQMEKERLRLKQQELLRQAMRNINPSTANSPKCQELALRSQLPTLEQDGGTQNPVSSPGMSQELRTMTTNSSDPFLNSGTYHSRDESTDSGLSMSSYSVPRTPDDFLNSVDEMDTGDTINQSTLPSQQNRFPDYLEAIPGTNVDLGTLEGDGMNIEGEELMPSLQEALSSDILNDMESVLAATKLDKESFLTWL

Q: How did the Kd turn out when CCCCCCCCCCCCC/C=C/[C@@H](O)[C@@H](N)COP(=O)(O)O [sphingosine 1-phosphate] was run?
A: 13 µM
